Test system: non small cell lung cancer (NSCLC)
Assay: clinical study in non small cell lung cancer: survival with statins in addition to TTFields
Type: in vivo, human
Details: statin plus Docetaxel plus TTFields compared to the same statin plus Docetaxel; FIGS. 5-7
Excerpt: In some aspects, the materials and methods described in Leal et al. “Tumor Treating Fields therapy with standard systemic therapy versus standard systemic therapy alone in metastatic non-small-cell lung cancer following progression on or after platinum-based therapy (LUNAR): a randomised, open-label, pivotal phase 3 study” Lancet Oncol. 2023 September; 24(9):1002-1017 can be used, such methods and materials are hereby incorporated by reference in its entirety herein. The disclosed experiments were based on a clinical trial in which subjects received Docetaxel or a combination of Docetaxel and TTFields. The patients also received statins during the clinical trial. The statins were not part of the clinical trial, however, the patients were previously on statins due to the chronic condition and continued to receive statins.

Row | SMILES | median survival of patients
1 | CC(C)c1c(C(=O)Nc2ccccc2)c(-c2ccccc2)c(-c2ccc(F)cc2)n1CC[C@@H](O)C[C@@H](O)CC(=O)O [Atorvastatin, atorvastatin] | increase in median survival
2 | CC(C)c1nc(N(C)S(C)(=O)=O)nc(-c2ccc(F)cc2)c1/C=C/[C@@H](O)C[C@@H](O)CC(=O)O [Rosuvastatin, rosuvastatin] | increase in median survival
